US20070219172A1, “Selective testicular 11beta-HSD inhibitors for the treatment of hypergonadism associated disorders and modulation of fertility” (The Miriam Hospital, priority 2005, published 2007)
Entries after “also recorded” stand apart in the source; their conditions may differ. Read-outs that look alike come from different tables or passages of the source.

Key:
[1] = biological target: T1, 11β-HSD1 Reductase (Rattus norvegicus, UniProt P16232); assay: 11β-HSD1 reductase inhibition, testicular Leydig cell homogenates; type: biochemical; conditions: result in words
T1 construct: testicular leydig cell homogenates; from tissue; host or cells: testicular Leydig cell homogenates
T1 sequence (P16232 whole entry): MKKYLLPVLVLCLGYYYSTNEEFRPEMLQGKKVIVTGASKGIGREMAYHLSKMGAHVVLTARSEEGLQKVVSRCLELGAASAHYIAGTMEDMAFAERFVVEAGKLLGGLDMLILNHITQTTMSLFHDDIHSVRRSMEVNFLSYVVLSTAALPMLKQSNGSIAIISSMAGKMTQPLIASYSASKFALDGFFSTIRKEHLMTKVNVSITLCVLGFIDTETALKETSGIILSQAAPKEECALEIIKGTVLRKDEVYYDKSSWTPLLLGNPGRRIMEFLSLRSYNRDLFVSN

[2] = biological target: T2, 11β-HSD1 Dehydrogenase (Rattus norvegicus, UniProt P16232); assay: 11β-HSD1 dehydrogenase inhibition, testicular Leydig cell homogenates; type: biochemical; conditions: result in words
T2 construct: testicular leydig cell homogenates; from tissue; host or cells: testicular Leydig cell homogenates
T2 sequence (P16232 whole entry): as above

[3] = test system: rat Leydig cells
[4] = biological target: T3, 11β-HSD2 Dehydrogenase (Ovis aries, UniProt P50168); assay: 11β-HSD2 dehydrogenase inhibition, sheep kidney microsomes; type: biochemical; conditions: result in words
T3 construct: sheep kidney microsomes; from tissue; host or cells: sheep kidney microsomes
T3 sequence (P50168 1-427): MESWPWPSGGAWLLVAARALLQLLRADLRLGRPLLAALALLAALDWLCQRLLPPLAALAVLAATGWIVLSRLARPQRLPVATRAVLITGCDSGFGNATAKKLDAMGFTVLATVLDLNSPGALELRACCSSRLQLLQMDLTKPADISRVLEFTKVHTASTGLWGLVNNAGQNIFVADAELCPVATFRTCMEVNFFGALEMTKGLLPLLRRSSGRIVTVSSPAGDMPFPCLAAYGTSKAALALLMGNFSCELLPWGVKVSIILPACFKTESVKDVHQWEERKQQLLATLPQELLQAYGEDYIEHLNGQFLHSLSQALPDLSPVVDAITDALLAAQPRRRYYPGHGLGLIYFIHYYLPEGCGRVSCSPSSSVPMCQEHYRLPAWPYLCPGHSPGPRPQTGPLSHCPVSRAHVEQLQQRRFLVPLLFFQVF

[5] = biological target: T1, 11β-HSD1 Reductase; assay: Backward reaction of 11β-HSD1 reductase in rat Leydig cells; type: cell-based
Description: Similar experiments were performed with 3α,5β-deoxycorticosterone and 3α,5β progesterone, neither of which posess an 11β-hydroxy group.

[6] = test system: 11β-HSD1-reductase activity in rat aortic rings; assay: Conversion of 3H-11-dehydrocorticosterone to corticosterone by aortic rings; conditions: vascular tissue
Description: (ii) ^3H-11-dehydro-corticosterone (10 nmol/L)±11β-HSD1 antisense (3 μmol/L); this experiment was performed in duplicate (n=10 aortic rings per well). Control groups were incubated with the appropriate nonsense oligomer. ^3H-corticosterone in the incubation medium after 24 hrs was then measured. In this experiment, aortic rings were also analyzed for ^3H-corticosterone content. Rings from duplicate incubations (total n=20) were blotted dry, pooled and homogenized in 50% methanol using a Polytron. The homogenates were then centrifuged, extracted as below using Sep-Paks and injected onto a HPLC system for analysis.
Incubation media was collected, ran through a Sep-Pak and eluted with 3 mls of methanol, the eluate was then dried under nitrogen and reconstituted in 500:1 methanol. The aortic rings were dried and weighed. The steroids present in the eluate were separated by high-pressure liquid chromatography with a Dupont Zorbax C8 column eluted at 44° C. at a flow rate of 1 mL/min using 55% methanol for 10 minutes. Steroids were observed by monitoring radioactivity on-line with a Packard Radiomatic Flo-One/Beta Series A-500 counter connected to a Dell Optiflex 425 S/L computer. Corticosterone and 11-dehydro-corticosterone were identified by comparing their retention times with that of known standards.

[7] = test system: rat aortic rings; assay: Contractile response of rat aortic rings to phenylephrine; conditions: for amplification of the contractile response to phenylephrine by the steroid: rat aortic rings incubated with the steroid, versus controls
Description: Male Sprague-Dawley (150-200 g) rats were anesthetized with pentobarbital (50 mg/kg IP), and a median sternotomy was performed followed by the rapid removal of the thoracic aorta. The adventitia was removed, but the endothelium was left intact. The aorta was cut into 2-3 mm rings and individual rings were placed into a single well of a twenty four well culture plate and incubated at 37° C. under 95% O2-5% CO2. Each well contained 1 mL of DMEM/F12 containing 1% fetal bovine serum, streptomycin (100 μg/ml), penicillin (100 units/ml) and amphotericin (0.25 μg/ml). Aortic rings were incubated for 24 hours prior to contractility measurements with the following combinations of steroids, and antisense/nonsense oligonucleotides (3 μmol/L):
Antisense phosphorothioate oligonucleotides, targeted to block either 11β-HSD2 or 11β-HSD1 gene expression, were obtained from Research Genetics, Huntsville Ala. Antisense oligomers complementary to 20 bp sequences spanning the ribosome binding/translation start site were used. Oligomer sequences were: 5′-CATAACTGCCGTCCAACAGC-3′ (SEQ ID No.: 2) for 11β-HSD1 Antisense and 5′-AGCCCAGCGCTCCATGACTT-3′ (SEQ ID No. 3) for 111-HSD2 antisense. In control experiments the corresponding sense sequence was used as the nonsense oligomer. Antisense and nonsense oligomers were added directly to each well at 20 μg/10:1 sterile H20 per well for a final concentration of 3 μmol/L.
For contraction measurements, aortic rings were suspended by tungsten wires with 1 g of tension and placed in a vessel bath containing serum free DMEM/F12 media at 37° C. aerated with 95% O2-5% CO2, at pH 7.4. Vessels were equilibrated for 20 minutes and then tested with phenylephrine ([…]-10 μmol/L). […] The intensity of contraction was assessed by use of a Narishige micromanipulator and model FT03 force transducer (Grass Instrument Co. West Warwick, R.I.). Measurements were recorded on computer using the Labview 4.1 Virtual Instrument System (National Instruments, Austin, Tex.).

[8] = whole cell preparations of rat Leydig cells

Compound | 11β-HSD1 Reductase inhibition [1] | 11β-HSD1 Dehydrogenase inhibition [2] | 11β-HSD2 Dehydrogenase inhibition [4] | also measured
3α,5α-reduced-11-keto-progesterone | Selective Inhibitor | No Inhibition | – | –
C[C@]12CC[C@@H](O)C[C@@H]1CC[C@@H]1[C@@H]2CC[C@]2(C)[C@@H](O)CC[C@@H]12 [3α5α TH-testosterone] | – | – | – | increase in NADPH production [3]: three to five fold increase
C[C@@]12CC[C@@H]3[C@H]([C@@H](O)C[C@]4(C=O)[C@@H](C(=O)CO)CC[C@@H]34)[C@@]1(C)CC[C@@H](O)C2 [3α,5α-reduced aldosterone] | No Inhibition | Moderate Inhibitor | Potent Inhibitor | –
C[C@]12CC[C@@H](O)C[C@@H]1CC[C@@H]1[C@@H]2C(=O)C[C@]2(C)C(=O)CC[C@@H]12 [3α,5α-reduced-11-keto-androstenedione] | Selective Inhibitor | No Inhibition | – | –
C[C@]12CC[C@H](O)C[C@@H]1CC[C@H]1[C@@H]3CC[C@H](O)[C@@]3(C)CC(=O)[C@@H]12 [3α,5α-reduced-11-keto-testosterone] | Selective Inhibitor | No Inhibition | – | –
C[C@]12CC[C@H](O)C[C@H]1CC[C@@H]1[C@@H]2[C@@H](O)C[C@]2(C)C(=O)CC[C@H]12 [3α,5α-reduced-11β-OH-androstenedione] | No Inhibition | Moderate Inhibitor | Potent Inhibitor (Non-Selective) | –
CC(=O)[C@H]1CC[C@H]2[C@@H]3CC[C@H]4C[C@@H](O)CC[C@]4(C)[C@H]3[C@@H](O)C[C@]12C [3α,5α-reduced-11β-OH-progesterone] | No Inhibition | Potent Inhibitor (Non-Selective) | Potent Inhibitor (Non-Selective) | increase in NADPH production [3, 8]: three to five fold increase
C[C@]12CC[C@@H](O)C[C@@H]1CC[C@@H]1[C@@H]2[C@@H](O)C[C@@]2(C)[C@@H]1CC[C@@H]2O [3α,5α-reduced-11β-OH-testosterone] | No Inhibition | Potent Inhibitor (Non-Selective) | Potent Inhibitor (Non-Selective) | –
C[C@]12CC[C@@H](O)C[C@@H]1CC[C@@H]1[C@@H]2[C@@H](O)C[C@]2(C)[C@@H](C(=O)CO)CC[C@@H]12 [3α,5α-reduced-corticosterone] | No Inhibition | Potent Inhibitor | Potent Inhibitor | increase in NADPH production [3, 8]: three to five fold increase
C[C@]12CC[C@@H](O)C[C@@H]1CC[C@H]1[C@@H]3CC[C@H](C(=O)CO)[C@@]3(C)CC(=O)[C@@H]12 [3α,5α-tetrahydro-11-dehydro-corticosterone] | Potent Inhibitor | No Inhibition | Potent Inhibitor | –
CC(=O)[C@H]1CC[C@H]2[C@@H]3CC[C@@H]4C[C@H](O)CC[C@]4(C)[C@H]3CC[C@]12C [3α,5β progesterone, 3α,5β-tetrahydro-progesterone] | – | potent inhibitors | – | effect on the backward reaction of 11β-HSD1 reductase [5]: Neither of these compounds effected the backward reaction
C[C@]12CC[C@@H](O)C[C@H]1CC[C@@H]1[C@@H]2CC[C@]2(C)[C@@H](C(=O)CO)CC[C@@H]12 [3α,5β-deoxycorticosterone, 3α,5β-terahydro-deoxycorticosterone] | – | potent inhibitors | – | effect on the backward reaction of 11β-HSD1 reductase [5]: Neither of these compounds effected the backward reaction
C[C@]12CCC(=O)C[C@@H]1CC[C@@H]1[C@@H]2[C@@H](O)C[C@]2(C)[C@@H](C(=O)CO)CC[C@@H]12 [5α-dihydro-corticosterone] | No inhibition | Potent Inhibitor | Potent Inhibitor | –
C[C@]12CCC(=O)C=C1CC[C@@H]1[C@@H]2C(=O)C[C@]2(C)C(=O)CC[C@@H]12 [11-Keto-androstenedione] | Selective Inhibitor | No Inhibition | No Inhibition | –
CC(=O)[C@H]1CC[C@H]2[C@@H]3CCC4=CC(=O)CC[C@]4(C)[C@H]3C(=O)C[C@]12C [11-Keto-progesterone] | Selective Inhibitor | No Inhibition | Potent Inhibitor | metabolism of 11-dehydro-corticosterone back to corticosterone [6]: decreased; ability of 11-dehydro-corticosterone to amplify the contractile response to phenylephrine ([7]; rat aortic rings, 24 h, 11-dehydro-corticosterone 100 nmol/L): diminished
C[C@]12CC(=O)[C@H]3[C@@H](CCC4=CC(=O)CC[C@@]43C)[C@@H]1CC[C@@H]2O [11-Keto-testosterone] | Selective Inhibitor | No Inhibition | No Inhibition | –
C[C@]12CC(=O)[C@H]3[C@@H](CCC4=CC(=O)CC[C@@]43C)[C@@H]1CC[C@@H]2C(=O)CO [11-dehydro-corticosterone] | – | – | – | amplification of the contractile response to phenylephrine by the steroid [7]: amplified
CC(=O)[C@H]1CC[C@H]2[C@@H]3CCC4=CC(=O)CC[C@]4(C)[C@H]3[C@@H](O)C[C@]12C [11β-OH-progesterone] | No Inhibition | Potent Inhibitor (Non-Selective) | – | –
C[C@]12C[C@H](O)[C@H]3[C@@H](CCC4=CC(=O)CC[C@@]43C)[C@@H]1CC[C@@H]2O [11β-OH-testosterone] | No Inhibition | Inhibitor (Non-Selective) | Inhibitor (Non-Selective) | –
C[C@H](CCC(=O)O)[C@H]1CC[C@H]2[C@@H]3[C@H](O)C[C@@H]4C[C@H](O)CC[C@]4(C)[C@H]3CC[C@]12C [chenodeoxycholic acid] | No Inhibition | potent inhibitors; also recorded: Selective inhibitor | No Inhibition | –
C[C@]12C[C@H](O)[C@H]3[C@@H](CCC4=CC(=O)CC[C@@]43C)[C@@H]1CC[C@@H]2C(=O)CO [corticosterone] | – | – | – | amplification of the contractile response to phenylephrine by the steroid [7]: amplified contractile responses
